Data: patent US20240125703A1, “SYSTEMS AND METHODS FOR Q[…] OBSERVED VISUALIZATION OF FL[…] AGENTS” (Stryker Corporation, priority 2022, published 2024)

Legend:
[1] = Urine concentration of pudexacianinium in minipigs; assay type: in vivo, Gottingen minipigs; conditions: 0.01 mg/kg; over 3 hour observation period
Protocol: A direct translation of the nonclinical pharmacology visualization results in the intended clinical use and dose in humans is considered feasible given the simple elimination route of the dye in both cases (eliminated entirely through renal system) and given the physiologic comparability between porcine and human kidneys. The 0.01 mg/kg dose used in pigs translates to an approximate human equivalent dose of 0.7-0.8 mg/participant. This is consistent with the dose recommendation for the clinical Phase 3 study (1 mg/participant).

ureter(s) = test: Phase 2 dose ranging study, Visualization Review Committee (VRC) assessment of ureter visualization; assay type: in vivo, human
Text: The results from the Phase 1 study provided the foundation for Phase 2 study, a randomized open-label, dose ranging study for ureter visualization, using ASP5354 in participants undergoing laparoscopic/minimally invasive colorectal surgery.
The results of the Phase 2 study support the use of pudexacianinium as an intraoperative ureter visualization (surgeon's ability to identify/locate the ureter from the surrounding structures) during the entire abdominopelvic surgical procedure. […] As a result, the VRC recommended moving forward with the 1 mg per participant dose for Phase 3.

[2] = In vitro NIR-F of ASP5354 in 96 well plates, microplate reader (excitation 780 nm, emission 820 nm); assay type: physicochemical; conditions: 0.01-1000 μg/mL in 96 well plates
Protocol: The following example illustrates using a measure of visual enhancement of the anatomy of interest in a color image (a contrast enhancement factor), generated according to method 100, as an alternative to biological samples for bioequivalence and bioavailability assessments of a fluorescence imaging agent, in particular the fluorescence dye ASP5354 (pudexacianinium). In this example, two in vitro studies were performed to determine the effect of ASP5354 concentration on near-infrared fluorescence (NIR-F). In the first study, ASP5354 (0.01-1000 μg/mL) was added to 96 well plates, the plates placed in a microplate reader, and subjected to a near-infrared excitation frequency of 780 nm. The emitted NIR-F determined at a wavelength of 820 nm. The fluorescence intensity increased as the concentration of pudexacianinium increased and tended to plateau at concentrations greater than or equal to 100 μg/mL.

ureters [3] = test: Qualitative in vivo ureter visualization in Yorkshire pig (Stryker 1588 AIM System and SPY-PHI open field system); conditions: 0.01 mg/kg, iv; either imaging system; prior to any dissection
Protocol: In a second qualitative in vivo study, pudexacianinium (0.01 mg/kg, iv) was injected into a healthy female Yorkshire pig and the ureters were visualized using examples of an image guided surgery system 10 of FIG. 1A—a Stryker Corporation 1588 AIM System and a Stryker Corporation SPY-PHI open field system—prior to any dissection.

pig ureters ex vivo = test: NIR-F of pudexacianinium instilled in pig ureters ex vivo (PDE-NEO NIR-F imager); conditions: for NIR-F Intensity: mean, three ureters
Protocol: In the second study, pudexacianinium (0.01-10 μg/mL) was instilled in pig ureters ex vivo and the NIR-F determined using a PDE-NEO NIR-F imager. Here too, the NIR-F intensity increased with increasing concentrations of pudexacianinium with the fluorescence intensity tending to plateau at concentrations equal to or greater than 1 μg/mL, as shown in the table below. Thus, the fluorescence activity of pudexacianinium can be visualized in the lumen of ureters.

ureters [4] = test: In vivo ureter visualization in Gottingen minipigs, NIR-F camera, visual assessment by three clinicians
Protocol: Next, the ability to visualize ureters in vivo was assessed in Gottingen minipigs. The animals were anesthetized, laparotomized and then intravenously injected with pudexacianinium (0.001 or 0.01 mg/kg). Videos of the abdominal cavity were taken using a NIR-F camera and assessed visually by three independent clinicians for up to three hours.

ureters [5] = test: Contrast quantification / contrast enhancement factor (CEF) from surgical video frames of ureters, laparoscopic/minimally invasive colorectal surgery (Phase 2); assay type: in vivo, human; conditions: for contrast quantification: single subject, 1.0 mg dose
Protocol: The following example illustrates using contrast quantification, according to method 100, to assess the visual effectiveness of different fluorescence imaging agent doses. In this example, subjects undergoing laparoscopic/minimally invasive colorectal surgery received doses of either 0.3 mg, 1.0 mg, or 3 mg of pudexacianinium chloride (Chemical formula (A))—an indocyanine-green derivative fluorescence imaging agent with hydrophilic properties and rapid urinary clearance without metabolism after intravenous administration—at the start of the minimally invasive surgery procedure and the normal colectomy was completed.
At pre-specified time intervals during the surgery, the surgeon utilized a fluorescence visualization system to examine the retroperitoneum and attempted to visualize the ureters. The surgical videos generated by the fluorescence visualization system were recorded. Frames from these surgical videos were analyzed according to method 100 to quantify the color contrast observable by the surgeon when a bolus of the fluorescence imaging agent passed through the ureters.
Baseline and fluorescence-containing images for a subject who received a 1.0 mg dose of the fluorescence imaging agent are illustrated in FIG. 5—baseline image 400 and fluorescence-containing image 402. The color images 400, 402 are full color surgical video frames generated by a fluorescence visualization system that combines full color and fluorescence frames into a combined frame in which the fluorescence signal is captured in the green component of the frame. The color images 400, 402 capture a portion of a ureter, which is visible in bright green in fluorescence-containing image 402. The fluorescence-containing image 402 was captured while a bolus of the fluorescence imaging agent was present in the portion of the ureter within the field of view, and the baseline image 400 was captured shortly after the bolus of the fluorescence imaging agent had at least partially passed through the portion of the ureter.
Each of the color images 400, 402 was imported in a video analysis software and exported as separate greyscale bitmaps of the red (R), green (G) and blue (B) color components corresponding to each full color image frame.
Next, a line was plotted that transects the ureter at the same location on both the fluorescence-containing and baseline bitmaps for each R, G, and B color component. Graphs were subsequently created that plot the bitmap signal intensity values at each point along the line segment against position on the line segment for each line segment in each color component. Red, green and blue graphs were constructed for each pair of fluorescence-containing — baseline color components. Exemplary graphs are illustrated in FIGS. 7A-C, which include the graphs for each color component for the fluorescence-containing image (“dye”) and baseline image (“no-dye”) on the same plot. FIG. 7A is the graph for the red color component for the fluorescence-containing and baseline images, FIG. 7B is the graph for the blue color component for the fluorescence-containing and baseline images, and FIG. 7C is the graph for the green color component for the fluorescence-containing and baseline images,
At least the graph for the green component was then analyzed to identify, according to steps 104 and 106 of method 100, regions along the line segment (shown in FIG. 7D as position 0-300) that—by comparison with the bitmap—lie clearly inside the anatomical boundaries of the ureter (a region encompassed by the anatomy of interest according to step 104) or clearly outside of those same anatomical boundaries (a region not encompassed by the anatomy of interest according to step 106). Note that the “inside” and “outside” regions are different for the fluorescence imaging agent (“dye”) and baseline (“no Dye”) images due to the differences in the field of view of the color images. […]

[6] = Dye in ureter, 1 mg (N = 6) including expansion
[7] = No Dye in ureter, 0.3 mg (N = 3)
[8] = No Dye in ureter, 1 mg (N = 6) including expansion

pudexacianinium chloride
urine concentration of pudexacianinium [1]: 1 to 6 µg/mL
VRC: adequacy for ureter(s) visualization (ureter(s); 0.3 mg per participant): inadequate for ureter(s) visualization
VRC: ureter(s) visualization (ureter(s); 1 mg per participant, during procedure, at beginning and end): provided ureter(s) visualization during the surgical procedure
VRC: difference in ureter(s) visualization between doses (ureter(s); 1 mg vs 3 mg dose): no notable differences
VRC conclusion on ureter visualization under NIR-F conditions (ureter(s); all doses (0.3, 1, 3 mg per participant)): enhanced visualization of ureter(s)
VRC: visualization throughout the duration of the surgical procedure (ureter(s); single dose of 1 mg and 3 mg per participant): consistently occurred
concentration at which fluorescence intensity tended to plateau [2]: greater than or equal to 100 μg/mL
visibility of ureters (ureters [3]): readily visible
NIR-F Intensity (pig ureters ex vivo; 0.01 ug/mL): 0.000 arbitrary units
NIR-F Intensity (pig ureters ex vivo; 0.03 ug/mL): 4.672 arbitrary units
NIR-F Intensity (pig ureters ex vivo; 0.1 ug/mL): 47.945 arbitrary units
NIR-F Intensity (pig ureters ex vivo; 0.3 ug/mL): 125.078 arbitrary units
NIR-F Intensity (pig ureters ex vivo; 1.0 ug/mL): 229.504 arbitrary units
NIR-F Intensity (pig ureters ex vivo; 3.0 ug/mL): 254.867 arbitrary units
NIR-F Intensity (pig ureters ex vivo; 10 ug/mL): 254.808 arbitrary units
concentration at which NIR-F intensity tended to plateau (pig ureters ex vivo; 0.01-10 μg/mL in pig ureters ex vivo): ≥ 1 µg/mL
animals demonstrating ureteral visualization for three hours (ureters [4]; 0.001 mg/kg intravenously): one out of three
animals showing ureteral visualization for the full three hour observation period (ureters [4]; 0.01 mg/kg intravenously): three out of three
Contrast quantification, Mean (ureters [5]; 0.3 mg, N 3, Baseline image): 1.10
Contrast quantification, Mean (ureters [5]; 0.3 mg, N 3, Fluorescence-containing image): 1.84
proportion of data with CEF above 1.5 (ureters [5]; 1 mg and 3 mg, dye): ≥ 90%
Contrast quantification, Mean (ureters [5]; 1.0 mg, N 6, Fluorescence-containing image (first column of the dose)): 2.55
Contrast quantification, Mean (ureters [5]; 1.0 mg, N 6, head printed Fluorescence-containing image (second column of the dose)): 1.06
Contrast quantification, Mean (ureters [5]; 3.0 mg, N 3, Fluorescence-containing image (first column of the dose)): 3.23
Contrast quantification, Mean (ureters [5]; 3.0 mg, N 3, head printed Fluorescence-containing image (second column of the dose)): 1.09
CEF, Mean (SD) (ureters [5]; Dye in ureter, 0.3 mg (N = 3)): 1.84 (0.46)
CEF, Median (ureters [5]; Dye in ureter, 0.3 mg (N = 3)): 1.77
CEF, Min-Max (ureters [5]; Dye in ureter, 0.3 mg (N = 3)): 1.3-3.0
CEF, Mean (SD) (ureters [5]; Dye in ureter, 1 mg (N = 3)): 2.97 (1.03)
CEF, Median (ureters [5]; Dye in ureter, 1 mg (N = 3)): 2.96
CEF, Min-Max (ureters [5]; Dye in ureter, 1 mg (N = 3)): 1.6-5.6
CEF, Mean (SD) (ureters [5]; [6]): 2.55 (0.95)
CEF, Median (ureters [5]; [6]): 2.28
CEF, Min-Max (ureters [5]; [6]): 1.3-5.6
CEF, Mean (SD) (ureters [5]; Dye in ureter, 3 mg (N = 3)): 3.23 (1.70)
CEF, Median (ureters [5]; Dye in ureter, 3 mg (N = 3)): 2.64
CEF, Min-Max (ureters [5]; Dye in ureter, 3 mg (N = 3)): 1.2-7.7
CEF, Mean (SD) (ureters [5]; [7]): 1.10 (0.13)
CEF, Median (ureters [5]; [7]): 1.05
CEF, Min-Max (ureters [5]; [7]): 0.9-1.3
CEF, Mean (SD) (ureters [5]; No Dye in ureter, 1 mg (N = 3)): 1.06 (0.12)
CEF, Median (ureters [5]; No Dye in ureter, 1 mg (N = 3)): 1.07
CEF, Min-Max (ureters [5]; No Dye in ureter, 1 mg (N = 3)): 0.8-1.3
CEF, Mean (SD) (ureters [5]; [8]): 1.06 (0.12)
CEF, Median (ureters [5]; [8]): 1.06
CEF, Min-Max (ureters [5]; [8]): 0.8-1.4
CEF, Mean (SD) (ureters [5]; No Dye in ureter, 3 mg (N = 3)): 1.09 (0.10)
CEF, Median (ureters [5]; No Dye in ureter, 3 mg (N = 3)): 1.10
CEF, Min-Max (ureters [5]; No Dye in ureter, 3 mg (N = 3)): 0.7-1.2
contrast quantification (ureters [5]; baseline image): 1.3
contrast quantification value for the baseline images (ureters [5]; baseline images, absence of bolus): around 1
contrast quantification (ureters [5]; fluorescence imaging agent image): 2.0
CEF value, all data points (ureters [5]; no dye conditions): below 1.5
reference CEF (ureters [5]; no dye present in the ureter): ~1
